Data set [1] in a line: Electrospray ionization mass spectrometry: biotin molecules bound per streptavidin tetramer. The format is binding. To be noted: for # biotins (bound to each tetramer): from mass change upon addition of biotin, 30 μM protein, 200 μM biotin; for biotin binding per tetramer by mass spectrometry (in words): spectra with or without biotin. The protocol: Biospin columns (Bio-Rad) were equilibrated by spinning 5 times in 500 μL of 15 mM ammonium acetate pH 7.8 at 1000 g for 2 min. Then 30-50 μL of 30 μM protein in PBS was buffer-exchanged into 15 mM ammonium acetate pH 7.8 using the pre-equilibrated Biospin columns by spinning for 20 s at 1000 g. To ensure that PBS was completely removed, the flow-through was again buffer-exchanged with a second pre-equilibrated column for 20 s. This procedure also removed free biotin when the starting 30 μM streptavidin forms were incubated with 200 μM biotin. Less than 2 min before introducing into the mass spectrometer, the buffer-exchanged samples were diluted with a solution of 1:1 15 mM ammonium acetate pH 7.8 and 78% acetonitrile, 0.01% trifluoroacetic acid.
An Advion nanospray robot (Advion BioSystems, Ithica, N.Y.) with a back-pressure of 0.45 Psi introduced the samples into the mass spectrometer, an 8.5 Tesla custom-built Electrospray Ionisation-Fourier Transform Mass Spectrometer. To visualize the non-covalent tetramers and non-covalent biotin binding in the high m/z range, the following settings were used: Chirp rate=750 Hz, Amplitude=0.5 V p-p, Tube lens=200 V, Capillary heater 2 V, Quad filter=−20 V, Skimmer=0 V, Capillary offset=34 V, X-fer=−110 V, Leak gas=4.2×10^−5 Torr. The capillary heater was kept low and the Quad filter and Skimmer were kept either high or off to prevent subunit dissociation. The transfer was set to this low value of −110 V in order to visualize the high m/z region.
The masses were calculated manually by first determining the charge state. The final mass was determined by multiplying the observed m/z by the charge and subtracting the mass corresponding to the addition of protons to give that charge. For example, for the 15+charge state of D4 an m/z of 3534.159 was obtained. (15×3534.159)-(15×1.00727) gave a mass for this ion of 52,997 Da. This calculation was repeated for each charge state and the mean and standard deviation reported. The spectra were calibrated with tetrameric streptavidin, after its monomer mass was determined under denaturing conditions (Mr=13,271.4 Da). Average masses were predicted from the DNA sequence, using the ExPASy PeptideMass Calculator (ca.expasy.org/tools/peptide-mass.html) and assuming removal of the N-terminal formyl-Methionine.
The different tetramers were purified using a Ni-nitrilotriacetic acid (NTA) column, eluting according to the number of His6-tags with increasing concentrations of imidazole. […] The tetramer composition was further confirmed by boiling the samples before loading on SDS-PAGE, to determine the ratio of A to D subunits (FIG. 1D), and by electrospray ionization mass spectrometry. In Table 1 (Schwartz, B. L. et al., J. of the Amer. Soc. for Mass Spec. 6: 459-465, 1995) the observed mass (±s.d.), determined by Electrospray Ionization-Mass Spectrometry, is compared to the mass predicted from the sequence. From the change (±s.e.m.) upon addition of biotin (mass 244.31), we determined how many biotin molecules were bound to each tetramer.
Electrospray ionization mass spectrometry was used to characterize the number of biotin molecules bound per tetramer. Spectra of the different streptavidin tetramers with or without biotin were acquired. […] The other chimeric tetramers bound one biotin per A subunit.

In data set [2] the test system is biotinylated AP-CFP-TM on HeLa cells. Nature of the data set: Staining of biotinylated AP-CFP-TM on HeLa with Alexa Fluor 568-conjugated streptavidins. The class given is cell-based. The following applies: Alexa Fluor 568 conjugate 10 μg/mL, 10 min at 4° C. How it is done: Enzymatic biotinylation and imaging of HeLa transfectants were performed as previously described (Howarth, M. et al., Proc. Natl. Acad. Sci. USA 102: 7583-7588, 2005), except instead of 10 μM biotin and 1 mM ATP, we added 10 μM biotin-AMP (synthesized according to Coleman and Huang; Coleman, T. M. and Huang, F. Chem. Biol. 9: 1227-1236, 2002) to give equivalent biotinylation but minimizing the risk of purinoreceptor activation by ATP (Rathbone, M. P. et al., Prog. Neurobiol. 59: 663-690, 1999). […] Biotinylation of neurons was performed at day in vitro (DIV) 8 in Hanks' Balanced Salt Solution (HBSS) (Invitrogen) with 0.2 μM biotin ligase and 10 μM biotin-AMP for 5 min at 37° C. […] Neurons were washed with NeuroBasal media (Invitrogen) supplemented with B-27 (Invitrogen), 50 U/mL penicillin, 50 μg/mL streptomycin, and 0.2 mM L-glutamine and chased in the same medium for 0 or 2 hr at 37° C. Cells were then fixed in −20° C. methanol. […]
Images of HeLa cells were collected on a Zeiss Axiovert 200M inverted epifluorescence microscope using a 40× oil-immersion lens and a MicroMAX CCD camera (Roper Scientific; Tucson, Ariz.). CFP (420DF20 excitation, 450DRLP dichroic, 475DF40 emission) and Alexa568 (560DF20 excitation, 585DRLP dichroic, 605DF30 emission) images were collected and analyzed using OpenLab software (Improvision; Lexington, Mass.). Fluorescence images were background-corrected. […] Images were scaled to 16 bits and analyzed in Northern Eclipse (Empix Imaging; Ontario, Canada) with user-written software. […] Results were then calculated in terms of clusters per micrometer of dendrite. For assessment of pre-synaptic terminals, clusters were determined as before and average grey levels of clusters were compared between transfected dendrites and untransfected dendrites within the same field of view. […] “n” represents the number of transfected neurons for which clusters were measured. […]

As to “A1D3: Monovalent streptavidin tetramer: one His6-tagged wild-type (A) subunit and three dead (D) subunits [Tetramer A1D3]”, in data set [1], the “# biotins (bound to each tetramer)” value stood at 1 and the “biotin binding per tetramer by mass spectrometry (in words)” value was “single biotin”. The “Alexa staining of biotinylated AP-CFP-TM” value in data set [2] is reported as “detected equally well”.

“D4: Streptavidin tetramer with 4 dead subunits (D: N23A, S27D, S45A, SEQ ID NO:3) [Tetramer D4]”: in data set [1], the “# biotins (bound to each tetramer)” value is listed as 0 and the “biotin binding per tetramer by mass spectrometry (in words)” value is on record as “No biotin binding”. Moreover, in data set [2], the “Alexa staining of biotinylated AP-CFP-TM” value is on record as “no detectable staining”.

(Values after US20070105162A1, “Monovalent avidin and streptavidin compositions” (Massachusetts Institute of Technology, priority 2005, published 2007).)
